Measured values published in patent publication US20240024273A1, “TOPICAL ADMINISTRATION OF 2-(DIETHYLAMINO)ETHYL 2-(4-ISOBUTYLPHENYL)PROPRIONATE FOR TREATMENT OF DISEASES” (TECHFIELDS PHARMA CO., LTD., priority 2020, published 2024).

Tests used:
Assay type in all cases: in vivo, human
[1] = test system: osteoarthritis of the knee; assay: Second Phase 2 study: Investigator's assessment of response to therapy (IART); conditions: Week 12
Excerpt: 4.9.3. Exploratory Efficacy Endpoints: • 1. Investigator's global assessment of response to therapy of the target knee at 2, 4, 8, and 12 weeks of treatment; • 2. Change from Baseline over time in overall WOMAC (VAS) score for the target knee after the treatment is stopped for 2 weeks.

[2] = test system: osteoarthritis of the knee; assay: Second Phase 2 study: Subject's pain Assessment Scores (SPA)
Description: Subjects will record the following information in a Daily Diary starting at Screening: the amount of knee pain in the target knee while walking during the preceding 24 hours (using a 100 mm visual analog scale [VAS]), the times and number of sprays for each administration of study medication, the times when the subject washes his/her knees and/or takes a shower, the number of tablets of rescue medication taken that day and the times taken, the reason for taking the rescue medication (e.g., knee pain, headache, low back pain), any other concomitant medications taken that day, and any AEs occurring that day.

[3] = test system: osteoarthritis of the knee; assay: Second Phase 2 study: Subject's Global Assessment of Disease Status (SGADS)
Excerpt: (§1) 4.9.2. Secondary Efficacy Endpoints: • 1. Change from Baseline in the WOMAC (VAS) pain subscale score for the target knee at 2, 8, and 12 weeks of treatment; • 2. Change from Baseline in the WOMAC (VAS) stiffness subscale scores for the target knee and WOMAC (VAS) functional ability subscale scores at 2, 4, 8, and 12 weeks of treatment; • 3. Change from Baseline in the overall WOMAC (VAS) score at 2, 4, 8, and 12 weeks of treatment; • 4. Subject's global assessment of disease status of the target knee at 2, 4, 8, and 12 weeks of treatment; • 5. Subject's global assessment of response to therapy of the target knee at 2, 4, 8, and 12 weeks of treatment; • 6. Amount of rescue medication (acetaminophen) consumed per day for target knee pain.

[4] = test system: osteoarthritis of the knee; assay: Second Phase 2 study: WOMAC stiffness subscale score
Excerpt: For subjects with bilateral knee pain, both knees will be treated, but the most symptomatic knee (ie, the most painful knee as measured by the Western Ontario and McMaster University Osteoarthritis Index [WOMAC® 3.1] pain subscale score at Screening) will be designated as the target knee for efficacy analyses. For subjects with unilateral knee pain, only the symptomatic (target) knee will be treated.
The VAS version of the WOMAC will be used for the Primary and Secondary Efficacy Endpoints. Efficacy endpoints will be assessed at Screening and Baseline (Day 1) and at the Week 2, Week 4, Week 8, and Week 12/EOS visits.
as §1
The Secondary Efficacy Endpoints, change from Baseline in the WOMAC subscale scores for pain, stiffness, and functional ability, and overall WOMAC score at 2, 4, 8, and 12 weeks of treatment, will be analyzed using the same methods as for the Primary Efficacy Endpoint.

[5] = oral, 3 x 400 mg (n = 20), first 130 subjects
[6] = all subjects, Oral Ibuprofen 3 × 400 mg, n = 48
[7] = Baseline, oral, 3 × 400 mg (n = 20), first 130 subjects
[8] = Week 12, oral, 3 × 400 mg (n = 20), first 130 subjects
[9] = all subjects, Oral Ibuprofen 3 × 400 mg, n = 48, Week 12
[10] = all subjects, Oral Ibuprofen 3 × 400 mg, n = 48 vs. Placebo n = 48
[11] = oral 3×400 mg, first 130 subjects

CC(C)Cc1ccc(C(C)C(=O)O)cc1 (centres unmarked) [Ibuprofen, 2-(4-isobutylphenyl)propionic acid, reference compound]
IART: Good and Very good [1, 5]: 50.0% | IART: Poor and Very Poor [1, 5]: 25.0% | IART: fair [1, 5]: 25.0% | IART, Good and Very good [1, 6]: 47.9% | IART, Poor and Very Poor [1, 6]: 8.3% | IART, fair [1, 6]: 43.8% | Subject’s pain Assessment Scores, Baseline (LS Mean) [2, 7]: 71.2 mm | Subject’s pain Assessment Scores, % of improvement from baseline [2, 8]: −36.2% | Subject’s pain Assessment Scores, % of improvement from placebo [2, 8]: −7.0% | Subject’s pain Assessment Scores, Changes from Baseline (LS Mean) [2, 8]: −25.8 mm | Subject’s pain Assessment Scores, Different from placebo (LS Mean) [2, 8]: −6.9 mm | Subject’s pain Assessment Scores, Week 12 (LS Mean) [2, 8]: 45.4 mm | Subject's pain Assessment Scores, % of improvement from Placebo [2, 9]: −8.4% | Subject's pain Assessment Scores, % of improvement from baseline [2, 9]: −45.4% | Subject's pain Assessment Scores, Changes from Baseline (LS Mean) [2, 9]: −30.5 mm | Subject's pain Assessment Scores, Week 12 (LS Mean) [2, 9]: 36.6 mm | SPA, difference vs. Placebo [2, 10]: −6.4 mm | SPA, difference from placebo [2, 11]: 6.1 mm | Subject’s Global Assessment of Disease Status Scores, Baseline (LS Mean) [3, 7]: 75.2 mm | Subject’s Global Assessment of Disease Status Scores, % of improvement from baseline [3, 8]: −38.4% | Subject’s Global Assessment of Disease Status Scores, % of improvement from placebo [3, 8]: −2.0% | Subject’s Global Assessment of Disease Status Scores, Changes from Baseline (LS Mean) [3, 8]: −28.9 mm | Subject’s Global Assessment of Disease Status Scores, Different from placebo (LS Mean) [3, 8]: −4.4 mm | Subject’s Global Assessment of Disease Status Scores, Week 12 (LS Mean) [3, 8]: 46.3 mm | Subject's Global Assessment of Disease Status Scores, % of improvement from Placebo [3, 9]: −0.7% | Subject's Global Assessment of Disease Status Scores, % of improvement from baseline [3, 9]: −46.6% | Subject's Global Assessment of Disease Status Scores, Changes from Baseline (LS Mean) [3, 9]: −33.3 mm | Subject's Global Assessment of Disease Status Scores, Week 12 (LS Mean) [3, 9]: 38.1 mm | SGADS, difference vs. Placebo [3, 10]: −2.9 mm | SGADS, difference from placebo [3, 11]: −4.2 mm | WOMAC Stiffness Subscale Scores, Baseline (LS Mean) [4, 7]: 56.4 mm | WOMAC Stiffness Subscale Scores, % of improvement from Placebo [4, 8]: −10.3% | WOMAC Stiffness Subscale Scores, Changes from Baseline (LS Mean) [4, 8]: −20.6 mm | WOMAC Stiffness Subscale Scores, Different from placebo (LS Mean) [4, 8]: −6.6 mm | WOMAC Stiffness Subscale Scores, Week 12 (LS Mean) [4, 8]: 35.8 mm | WOMAC Stiffness Subscale Scores, % of improvement from Placebo [4, 9]: −6.9% | WOMAC Stiffness Subscale Scores, % of improvement from baseline [4, 9]: −39.3% | WOMAC Stiffness Subscale Scores, Changes from Baseline (LS Mean) [4, 9]: −20.3 mm | WOMAC Stiffness Subscale Scores, Week 12 (LS Mean) [4, 9]: 31.3 mm | WOMAC Stiffness, difference vs. Placebo [4, 10]: −3.8 mm | WOMAC stiffness, difference from placebo [4, 11]: −6.7 mm
